Results on one compound are retold here after PMC11920416 (Nature Communications, 2025).

Each structure is given as a SMILES string. pIC50: −log10 of the molar value.

The pIC50 is −log10 of the IC50, conventionally taken in molar units.

The assay concerns the target T1, porcine ficolin 2 (FCN2) (Sus scrofa, UniProt Q29041).
T1 sequence (Q29041 27-323): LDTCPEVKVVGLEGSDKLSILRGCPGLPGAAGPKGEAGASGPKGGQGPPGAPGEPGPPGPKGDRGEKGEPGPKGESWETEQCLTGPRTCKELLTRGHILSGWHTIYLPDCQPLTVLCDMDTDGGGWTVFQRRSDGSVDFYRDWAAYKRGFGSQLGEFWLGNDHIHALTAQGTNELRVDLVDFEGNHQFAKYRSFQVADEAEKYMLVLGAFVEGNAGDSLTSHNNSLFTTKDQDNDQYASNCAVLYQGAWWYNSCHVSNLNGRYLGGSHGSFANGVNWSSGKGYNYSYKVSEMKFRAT
In kind it is biochemical. Particulars: 60% (v/v) pig serum, 37 °C, 20 min; PMOXA-coated NPs; S2 site, competitive.

As to `CC(=O)N[C@H]1C(O)O[C@H](CO)[C@@H](O)[C@@H]1O` (stereo partly shown) [GlcNAc], the pIC50 was 1.17.
